Assay: Solubility of cycloastragalus in water, acetone and oil carriers
Format: physicochemical
Text: In certain embodiments, the disclosure provides compositions to deliver the active ingredient to the root bulb of the hair follicle. Cycloastragalus is not soluble in water. Creating a cream formulation could possibly lead to clogging of pores at the site of the hair follicle, which could negatively affect restoration of the follicle. In certain aspects, the present disclosure relates to delivery of cycloastragalus using oil-based formulations. Oil is absorbed into the stratum corneum and deeper layers of the skin where the root bulb cells are located.
Initial attempts at determining an appropriate oil carrier were done using either or in combination together C10-30 Cholesterol and Lanosterol esters.
Further attempts were then made in to dissolve the cycloastragalus in oil carrier.
Cycloastragalus is soluble in acetone. We evaluated the possibility that cycloastragalus could be first dissolved in acetone and then put into solution with an oil carrier. Since acetone evaporates to completion out of any open system, it could be removed leaving the cycloastragalus in solution. One should keep in mind that acetone is incredibly flammable, and methods for removing acetone should be chosen carefully.

CC(C)(O)[C@@H]1CC[C@](C)([C@H]2[C@@H](O)C[C@@]3(C)[C@@H]4C[C@H](O)[C@H]5C(C)(C)[C@@H](O)CC[C@@]56C[C@@]46CC[C@]23C)O1 [Cycloastragalus, cycloastragenol]
solubility in acetone (acetone): soluble | dissolving in oil carrier (oil carrier, direct dissolution without acetone): limited success | solubility in water: not soluble | solubility in water (listed as cycloastragalus): very limited results

— US20160081912A1, “COMPOSITIONS FOR IMPROVING THE HAIR, SKIN, AND NAILS” (FYBRANDS CORP., priority 2013, published 2016)
